In patent US6676928B2, “Perfluoroalkyl-containing complexes with polar radicals, process for their production and their use” (Schering Aktiengesellschaft, priority 2000, dated 2004):
“And” between values parts separate entries of the source, which are not always exact repeats. Equal entries are not always repeated. One block for each compound: values may come before it.

Assays:
[1] = 39° C., 0.47 T; cited from earlier work
[2] = 39° C., 0.47 T; cited from earlier work; remark: listed apart in the source
[3] = Organ distribution (including tumor and lymph node concentration) after intravenous administration in prostate-cancer-carrying rats; format: in vivo, rats (Cop-inbreeding, Dunning R3327 MAT-Lu prostate cancer); conditions: rat i.v. 100 μmol Gd/kg
Description: Organ Distribution (Including Tumor and Lymph Node Concentration) After Intravenous Administration of the Contrast Medium According to the Invention From Example 3 in Prostate-cancer-Carrying Rats.
After intravenous administration of 100 μmol of total gadolinium/kg of body weight of the title compound of Example 3 in rats (Cop-inbreeding Dunning R3327 MAT-Lu prostate cancer i.m.-implanted 12 days earlier), the metal content in various organs, in tumors and in lymph nodes (pooled as mesenteral and peripheral lymph nodes) was determined 10 minutes, 1 and 24 hours after administration (MW=SD, n=3).

[4] = in vivo; cited from earlier work
[5] = tested on: infarcted tissue (kidney, myocardium); conditions: two cases: infarction-kidney and myocardium; cited from earlier work
[6] = blood (58 ml of blood/kg of body weight), 10 min p.i.
[7] = blood (58 ml of blood/kg of body weight), 1 h p.i.
[8] = blood (58 ml of blood/kg of body weight), 24 h p.i.
[9] = intestine (emptied), 10 min p.i.
[10] = mes. LK (pooled mesenteral lymph nodes), 10 min p.i.
[11] = mes. LK (pooled mesenteral lymph nodes), 1 h p.i.
[12] = mes. LK (pooled mesenteral lymph nodes), 24 h p.i.
[13] = muscle (only tissue sample from right lower leg muscle), 10 min p.i.
[14] = muscle (only tissue sample from right lower leg muscle), 1 h p.i.
[15] = muscle (only tissue sample from right lower leg muscle), 24 h p.i.
[16] = periph. LK (pooled peripheral lymph nodes), 10 min p.i.
[17] = periph. LK (pooled peripheral lymph nodes), 1 h p.i.
[18] = periph. LK (pooled peripheral lymph nodes), 24 h p.i.
[19] = remainder of the body, 24 h p.i.

Compound: CNC[C@H](O)[C@@H](O)[C@H](O)[C@H](O)CO.O=C([O-])CN1CCN(CC(=O)[O-])CCN(CC(=O)O)CCN(CC(=O)[O-])CC1.[Gd+3] [DOTAREM ®]
- T^1 - Relaxivity in Plasma [1]: 4.3 mmol⁻¹ s⁻¹
- T^1 - Relaxivity in Water [2]: 3.5 mmol⁻¹ s⁻¹

- % Dosis pro Gesamtgewebe, Summe der Organe (sum total of all of the organs) ([3]; 10 min p.i., less the remainder of the body): 46,35%
- % Dosis pro Gesamtgewebe, Summe der Organe (sum total of all of the organs) ([3]; 1 h p.i., less the remainder of the body): 41,79%
- % Dosis pro Gesamtgewebe, Bilanz (balance) ([3]; 24 h p.i.): 96,24%
- % Dosis pro Gesamtgewebe, Summe der Organe (sum total of all of the organs) ([3]; 24 h p.i.): 50,95%
- % Dosis pro Gesamtgewebe (% dose per total tissue) [3, 6]: 35,18%
- Gd-Konzentration (Gd-concentration) [3, 6]: 621 µmol/L
- % Dosis pro Gesamtgewebe (% dose per total tissue) [3, 7]: 30,63%
- Gd-Konzentration (Gd-concentration) [3, 7]: 534 µmol/L
- % Dosis pro Gesamtgewebe (% dose per total tissue) [3, 8]: 9,58%
- Gd-Konzentration (Gd-concentration) [3, 8]: 169 µmol/L
- % Dosis pro Gesamtgewebe (% dose per total tissue) ([3]; brain, 10 min p.i.): 0,09%
- Gd-Konzentration (Gd-concentration) ([3]; brain, 10 min p.i.): 16 µmol/L
- % Dosis pro Gesamtgewebe (% dose per total tissue) ([3]; brain, 1 h p.i.): 0,10%
- Gd-Konzentration (Gd-concentration) ([3]; brain, 1 h p.i.): 16 µmol/L
- % Dosis pro Gesamtgewebe (% dose per total tissue) ([3]; brain, 24 h p.i.): 0,03%
- Gd-Konzentration (Gd-concentration) ([3]; brain, 24 h p.i.): 5 µmol/L
- % Dosis pro Gesamtgewebe (% dose per total tissue) ([3]; feces 0-24 h): 8,91%
- Gd-Konzentration (Gd-concentration) ([3]; feces 0-24 h): 561 µmol/L
- % Dosis pro Gesamtgewebe (% dose per total tissue) ([3]; femur, 10 min p.i.): 0,50%
- Gd-Konzentration (Gd-concentration) ([3]; femur, 10 min p.i.): 61 µmol/L
- % Dosis pro Gesamtgewebe (% dose per total tissue) ([3]; femur, 1 h p.i.): 0,50%
- Gd-Konzentration (Gd-concentration) ([3]; femur, 1 h p.i.): 64 µmol/L
- % Dosis pro Gesamtgewebe (% dose per total tissue) ([3]; femur, 24 h p.i.): 0,26%
- Gd-Konzentration (Gd-concentration) ([3]; femur, 24 h p.i.): 33 µmol/L
- % Dosis pro Gesamtgewebe (% dose per total tissue) ([3]; heart, 10 min p.i.): 0,40%
- Gd-Konzentration (Gd-concentration) ([3]; heart, 10 min p.i.): 177 µmol/L
- % Dosis pro Gesamtgewebe (% dose per total tissue) ([3]; heart, 1 h p.i.): 0,33%
- Gd-Konzentration (Gd-concentration) ([3]; heart, 1 h p.i.): 151 µmol/L
- % Dosis pro Gesamtgewebe (% dose per total tissue) ([3]; heart, 24 h p.i.): 0,15%
- Gd-Konzentration (Gd-concentration) ([3]; heart, 24 h p.i.): 65 µmol/L
- % Dosis pro Gesamtgewebe (% dose per total tissue) [3, 9]: 2,48%
- Gd-Konzentration (Gd-concentration) [3, 9]: 146 µmol/L
- % Dosis pro Gesamtgewebe (% dose per total tissue) ([3]; intestine (emptied), 1 h p.i.): 1,85%
- Gd-Konzentration (Gd-concentration) ([3]; intestine (emptied), 1 h p.i.): 130 µmol/L
- % Dosis pro Gesamtgewebe (% dose per total tissue) ([3]; intestine (emptied), 24 h p.i.): 1,63%
- Gd-Konzentration (Gd-concentration) ([3]; intestine (emptied), 24 h p.i.): 101 µmol/L
- % Dosis pro Gesamtgewebe (% dose per total tissue) ([3]; kidney, 10 min p.i.): 1,70%
- Gd-Konzentration (Gd-concentration) ([3]; kidney, 10 min p.i.): 359 µmol/L
- % Dosis pro Gesamtgewebe (% dose per total tissue) ([3]; kidney, 1 h p.i.): 2,00%
- Gd-Konzentration (Gd-concentration) ([3]; kidney, 1 h p.i.): 394 µmol/L
- % Dosis pro Gesamtgewebe (% dose per total tissue) ([3]; kidney, 24 h p.i.): 1,38%
- Gd-Konzentration (Gd-concentration) ([3]; kidney, 24 h p.i.): 292 µmol/L
- % Dosis pro Gesamtgewebe (% dose per total tissue) ([3]; liver, 10 min p.i.): 3,79%
- Gd-Konzentration (Gd-concentration) ([3]; liver, 10 min p.i.): 137 µmol/L
- % Dosis pro Gesamtgewebe (% dose per total tissue) ([3]; liver, 1 h p.i.): 3,93%
- Gd-Konzentration (Gd-concentration) ([3]; liver, 1 h p.i.): 136 µmol/L
- % Dosis pro Gesamtgewebe (% dose per total tissue) ([3]; liver, 24 h p.i.): 5,37%
- Gd-Konzentration (Gd-concentration) ([3]; liver, 24 h p.i.): 172 µmol/L
- % Dosis pro Gesamtgewebe (% dose per total tissue) ([3]; lung, 10 min p.i.): 1,30%
- Gd-Konzentration (Gd-concentration) ([3]; lung, 10 min p.i.): 344 µmol/L
- % Dosis pro Gesamtgewebe (% dose per total tissue) ([3]; lung, 1 h p.i.): 1,27%
- Gd-Konzentration (Gd-concentration) ([3]; lung, 1 h p.i.): 321 µmol/L
- % Dosis pro Gesamtgewebe (% dose per total tissue) ([3]; lung, 24 h p.i.): 0,56%
- Gd-Konzentration (Gd-concentration) ([3]; lung, 24 h p.i.): 146 µmol/L
- % Dosis pro Gesamtgewebe (% dose per total tissue) [3, 10]: 0,11%
- Gd-Konzentration (Gd-concentration) [3, 10]: 155 µmol/L
- % Dosis pro Gesamtgewebe (% dose per total tissue) [3, 11]: 1,10%
- Gd-Konzentration (Gd-concentration) [3, 11]: 160 µmol/L
- % Dosis pro Gesamtgewebe (% dose per total tissue) [3, 12]: 0,09%
- Gd-Konzentration (Gd-concentration) [3, 12]: 127 µmol/L
- % Dosis pro Gesamtgewebe (% dose per total tissue) [3, 13]: 0,12%
- Gd-Konzentration (Gd-concentration) [3, 13]: 41 µmol/L
- % Dosis pro Gesamtgewebe (% dose per total tissue) [3, 14]: 0,08%
- Gd-Konzentration (Gd-concentration) [3, 14]: 40 µmol/L
- % Dosis pro Gesamtgewebe (% dose per total tissue) [3, 15]: 0,03%
- Gd-Konzentration (Gd-concentration) [3, 15]: 13 µmol/L
- % Dosis pro Gesamtgewebe (% dose per total tissue) ([3]; pancreas, 10 min p.i.): 0,25%
- Gd-Konzentration (Gd-concentration) ([3]; pancreas, 10 min p.i.): 99 µmol/L
- % Dosis pro Gesamtgewebe (% dose per total tissue) ([3]; pancreas, 1 h p.i.): 0,23%
- Gd-Konzentration (Gd-concentration) ([3]; pancreas, 1 h p.i.): 95 µmol/L
- % Dosis pro Gesamtgewebe (% dose per total tissue) ([3]; pancreas, 24 h p.i.): 0,18%
- Gd-Konzentration (Gd-concentration) ([3]; pancreas, 24 h p.i.): 55 µmol/L
- % Dosis pro Gesamtgewebe (% dose per total tissue) [3, 16]: 0,13%
- Gd-Konzentration (Gd-concentration) [3, 16]: 115 µmol/L
- % Dosis pro Gesamtgewebe (% dose per total tissue) [3, 17]: 0,19%
- Gd-Konzentration (Gd-concentration) [3, 17]: 186 µmol/L
- % Dosis pro Gesamtgewebe (% dose per total tissue) [3, 18]: 0,11%
- Gd-Konzentration (Gd-concentration) [3, 18]: 108 µmol/L
- % Dosis pro Gesamtgewebe (% dose per total tissue) [3, 19]: 31,05%
- Gd-Konzentration (Gd-concentration) [3, 19]: 103 µmol/L
- % Dosis pro Gesamtgewebe (% dose per total tissue) ([3]; spleen, 10 min p.i.): 0,25%
- Gd-Konzentration (Gd-concentration) ([3]; spleen, 10 min p.i.): 184 µmol/L
- % Dosis pro Gesamtgewebe (% dose per total tissue) ([3]; spleen, 1 h p.i.): 0,23%
- Gd-Konzentration (Gd-concentration) ([3]; spleen, 1 h p.i.): 161 µmol/L
- % Dosis pro Gesamtgewebe (% dose per total tissue) ([3]; spleen, 24 h p.i.): 0,25%
- Gd-Konzentration (Gd-concentration) ([3]; spleen, 24 h p.i.): 161 µmol/L
- % Dosis pro Gesamtgewebe (% dose per total tissue) ([3]; stomach (emptied), 10 min p.i.): 0,47%
- Gd-Konzentration (Gd-concentration) ([3]; stomach (emptied), 10 min p.i.): 90 µmol/L
- % Dosis pro Gesamtgewebe (% dose per total tissue) ([3]; stomach (emptied), 1 h p.i.): 0,50%
- Gd-Konzentration (Gd-concentration) ([3]; stomach (emptied), 1 h p.i.): 93 µmol/L
- % Dosis pro Gesamtgewebe (% dose per total tissue) ([3]; stomach (emptied), 24 h p.i.): 0,27%
- Gd-Konzentration (Gd-concentration) ([3]; stomach (emptied), 24 h p.i.): 48 µmol/L
- % Dosis pro Gesamtgewebe (% dose per total tissue) ([3]; tumor, 10 min p.i.): 0,20%
- Gd-Konzentration (Gd-concentration) ([3]; tumor, 10 min p.i.): 82 µmol/L
- % Dosis pro Gesamtgewebe (% dose per total tissue) ([3]; tumor, 1 h p.i.): 0,40%
- Gd-Konzentration (Gd-concentration) ([3]; tumor, 1 h p.i.): 126 µmol/L
- % Dosis pro Gesamtgewebe (% dose per total tissue) ([3]; tumor, 24 h p.i.): 0,46%
- Gd-Konzentration (Gd-concentration) ([3]; tumor, 24 h p.i.): 100 µmol/L
- % Dosis pro Gesamtgewebe (% dose per total tissue) ([3]; urine 0-24 h): 36,38%
- Gd-Konzentration (Gd-concentration) ([3]; urine 0-24 h): 60 µmol/L
Compound: CC(C(=O)NCC(=O)NCCCC[C@H](NC(=O)CNC(=O)C(C)N1CCN(CC(=O)[O-])CCN(CC(=O)[O-])CCN(CC(=O)[O-])CC1)C(=O)N1CCN(S(=O)(=O)C(F)(F)C(F)(F)C(F)(F)C(F)(F)C(F)(F)C(F)(F)C(F)(F)C(F)(F)F)CC1)N1CCN(CC(=O)[O-])CCN(CC(=O)[O-])CCN(CC(=O)[O-])CC1.[Gd+3].[Gd+3] (some centres unmarked) [Example 3]

Compound: CNC[C@H](O)[C@@H](O)[C@H](O)[C@H](O)CO.CNC[C@H](O)[C@@H](O)[C@H](O)[C@H](O)CO.O=C([O-])CN(CCN(CC(=O)[O-])CC(=O)O)CCN(CC(=O)[O-])CC(=O)O.[Gd+3] [MAGNEVIST ®]
- T^1 - Relaxivity in Plasma [1]: 4.8 mmol⁻¹ s⁻¹
- T^1 - Relaxivity in Water [2]: 3.8 mmol⁻¹ s⁻¹

Compound: O=S(=O)([O-])c1ccc(-c2c3nc(c(-c4ccc(S(=O)(=O)[O-])cc4)c4ccc([nH]4)c(-c4ccc(S(=O)(=O)[O-])cc4)c4nc(c(-c5ccc(S(=O)(=O)[O-])cc5)c5ccc2[nH]5)C=C4)C=C3)cc1.[Mn+4] [Mn-TPPS, manganese-5,10,15,20-tetrakis(4-sulfonatophenyl)-porphyrin]
- LD50 [4]: approximately 0.5 mmol/kg

Compound: CNC(=O)CN(CCN(CCN(CC(=O)[O-])CC(=O)NC)CC(=O)[O-])CC(=O)[O-].[Gd+3] [OMNISCAN ®]
- T^1 - Relaxivity in Plasma [1]: 4.4 mmol⁻¹ s⁻¹
- T^1 - Relaxivity in Water [2]: 3.8 mmol⁻¹ s⁻¹

Compound: CC(O)CN1CCN(CC(=O)[O-])CCN(CC(=O)[O-])CCN(CC(=O)[O-])CC1.[Gd+3] (centres unmarked) [PRO HANCE ®]
- T^1 - Relaxivity in Plasma [1]: 4.9 mmol⁻¹ s⁻¹
- T^1 - Relaxivity in Water [2]: 3.7 mmol⁻¹ s⁻¹

Compound: gadolinium-mesoporphyrin [Gd-MP]
- ratio of the signal intensities in MRI, infarcted in comparison to healthy tissue [5]: 2.10 and 2.19
